Patent US20260240873A1, “USE OF C[…] THE TREATMENT OF TUBEROUS SCLEROSIS COMPLEX” (GW Research Limited, priority 2019, published 2026)

Columns and labels:
TSC-associated seizures = assay: Double-blind, randomized, placebo-controlled trial: TSC-associated seizure frequency; format: in vivo, human; details: for Mean number of TSC-associated seizures per 28 days, treatment period: 16-week treatment period, add-on to AEDs; for Mean number of TSC-associated seizures per 28 days, baseline period: 4-week baseline before treatment; for Reduction in TSC-associated seizures over the maintenance period: 12-week maintenance period, placebo 30%; for Patients who experienced a ≥50% reduction in seizures, number (%): placebo 17 (22.4%); for TSC-associated seizures, estimated ratio CBD/Placebo / TSC-associated seizures, percentage reduction CBD/Placebo: treatment period
Protocol: (§1) The blinded phase of the study was a randomized, double-blind, parallel-group, 16-week comparison of two doses of CBD versus placebo. Patients completed a 1-week screening period and a 4-week baseline period before they were randomized to receive 25 mg/kg/day CBD, 50 mg/kg/day CBD or equivalent volumes of placebo. Randomization was stratified by age according to the following ranges: 1-6, 7-11, 12-17 years and 18+ years.
(§2) Patients began a 4-week dose escalation period, titrating up to their assigned dose, before continuing on a stable dose of blinded investigational medicinal product (IMP) for 12 weeks.
(§3) Patients were required to perform daily interactive voice response system (IVRS) telephone calls to record seizure information. They were also required to complete a paper diary daily with information about IMP and concomitant AED administration.
The primary endpoint was the change in number of TSC-associated seizures during the treatment period (maintenance and titration) compared to baseline in patients taking CBD compared with placebo.
TSC-associated seizures included: focal motor seizures without impairment of consciousness or awareness; focal seizures with impairment of consciousness or awareness; focal seizures evolving to bilateral generalized convulsive seizures and generalized seizures (tonic-clonic, tonic, clonic or atonic) that are countable.
Secondary endpoints included the number of patients considered treatment responders which was defined as those with a >50% reduction in TSC-associated seizure frequency;
Antiepileptic efficacy measures were also determined and these included: number of patients considered treatment responders defined as those with a ≥25%, ≥50%, ≥75% or 100% reduction in TSC-associated seizure frequency; number of patients experiencing a >25% worsening, −25 to +25% no change, 25-50% improvement, 50-75% improvement or >75% improvement in TSC-associated seizure frequency; change in number of TSC-associated seizure-free days; and change in number of ‘other’ seizures (absence, myoclonic, focal sensory and infantile/epileptic spasms).

total seizures = assay: Double-blind, randomized, placebo-controlled trial: total seizure count; format: in vivo, human; details: for Total seizure count, mean number of seizures per 28 days, treatment period: 16-week treatment period; for Total seizure count, mean number of seizures per 28 days, baseline period: baseline before treatment; for Reduction of seizures over the maintenance period (paragraph after the total seizure tables): 12-week maintenance period, placebo 30.1%
Protocol: as §1, §2, §3
(§4) change in Caregiver Global Impression of Change (CGIC) or Subject Global Impression of Change (SGIC) score; and change in total seizures.
In addition to the TSC-associated seizures (focal motor seizures without impairment of consciousness or awareness; focal seizures with impairment of consciousness or awareness; focal seizures evolving to bilateral generalized convulsive seizures and generalized seizures (tonic-clonic, tonic, clonic or atonic) that are countable) the total seizure count was recorded in the trial.

[1] = Double-blind, randomized, placebo-controlled trial: Subject/Caregiver Global Impression of Change; format: in vivo, human; details: for Subject/caregiver global impression of change: Much improved, number (%) / Subject/caregiver global impression of change: Much worse, number (%) / Subject/caregiver global impression of change: No change, number (%) / Subject/caregiver global impression of change: Slightly improved, number (%) / Subject/caregiver global impression of change: Slightly worse, number (%) / Subject/caregiver global impression of change: Very much worse, number (%) / Subject/caregiver global impression of change: Very much improved, number (%): data from last visit
Protocol: as §1, §4

[2] = Double-blind, randomized, placebo-controlled trial: safety and tolerability (adverse events, ALT); format: in vivo, human; details: for Patients with alanine aminotransferase (ALT) elevations >3 upper level of normal (ULN): none on placebo
Protocol: as §1
Safety and tolerability measures that were recorded included: adverse events; clinical laboratory parameters; 12-lead electrocardiogram (ECG); physical examination parameters (including height and weight); vital signs; Columbia-Suicide Severity Rating Scale (C-SSRS; 19+ years) or C-SSRS Children's (6-18 years) score, where applicable; number of inpatient hospitalizations due to epilepsy; abuse liability and effects on menstruation cycles (in females).

seizures [3] = details: 200 mg/day pure CBD; four adult patients; cited from earlier work
generalized epilepsy = details: eight adult patients with generalized epilepsy; cited from earlier work
seizures [4] = details: mice; after pro-convulsant drugs or an electric current; cited from earlier work
seizures [5] = details: 200 mg/day pure CBD; twelve institutionalized adult patients; open label; cited from earlier work
[6] = CBD 25 mg/kg/day group (n = 75)
[7] = CBD 25 mg/kg/day, p-value 0.0009
[8] = CBD 50 mg/kg/day group (n = 73)
[9] = CBD 50 mg/kg/day, p-value 0.0018
[10] = CBD 50 mg/kg/day, treatment period, p-value 0.0018

## C=C(C)[C@@H]1CCC(C)=C[C@H]1c1c(O)cc(CCCCC)cc1O [CBD, cannabidiol]
TSC-associated seizures; CBD 25 mg/kg/day
  Patients with complete seizure freedom (100% reduction in TSC-associated seizure frequency): 4 patients
TSC-associated seizures; CBD 25 mg/kg/day (n = 75)
  TSC-associated seizures, estimated ratio Treatment period/Baseline period: 0.514
  TSC-associated seizures, percentage reduction Treatment period/Baseline period: 48.6%
  Mean number of TSC-associated seizures per 28 days, treatment period: 26.5 per 28 days
TSC-associated seizures; [6]
  Mean number of TSC-associated seizures per 28 days, baseline period: 51.6 per 28 days
TSC-associated seizures; CBD 25 mg/kg/day, p=0.0004
  Reduction in TSC-associated seizures over the maintenance period: 55.8%
TSC-associated seizures; CBD 25 mg/kg/day, p=0.0692
  Patients who experienced a ≥50% reduction in seizures, number (%): 27 (36.0%) patients
TSC-associated seizures; [7]
  TSC-associated seizures, estimated ratio CBD/Placebo: 0.699
  TSC-associated seizures, percentage reduction CBD/Placebo: 30.1%
TSC-associated seizures; CBD 50 mg/kg/day
  Patients with complete seizure freedom (100% reduction in TSC-associated seizure frequency): 2 patients
TSC-associated seizures; CBD 50 mg/kg/day (n = 73)
  TSC-associated seizures, estimated ratio Treatment period/Baseline period: 0.525
  TSC-associated seizures, percentage reduction Treatment period/Baseline period: 47.5%
  Mean number of TSC-associated seizures per 28 days, treatment period: 34.9 per 28 days
TSC-associated seizures; [8]
  Mean number of TSC-associated seizures per 28 days, baseline period: 66.3 per 28 days
TSC-associated seizures; CBD 50 mg/kg/day, p=0.0005
  Reduction in TSC-associated seizures over the maintenance period: 55.8%
TSC-associated seizures; CBD 50 mg/kg/day, p=0.0245
  Patients who experienced a ≥50% reduction in seizures, number (%): 29 (39.2%) patients
TSC-associated seizures; [9]
  TSC-associated seizures, estimated ratio CBD/Placebo: 0.715
  TSC-associated seizures, percentage reduction CBD/Placebo: 28.5%
TSC-associated seizures; both 25 and 50 mg/kg/day
  Number of TSC-associated seizures (conclusion): significantly reduce
Total seizures; CBD 25 mg/kg/day (n = 75)
  Total seizures, estimated ratio Treatment period/Baseline period: 0.519
  Total seizures, percentage reduction Treatment period/Baseline period: 48.1%
  Total seizure count, mean number of seizures per 28 days, treatment period: 28.0 per 28 days
Total seizures; [6]
  Total seizure count, mean number of seizures per 28 days, baseline period: 53.9 per 28 days
Total seizures; CBD 25 mg/kg/day, p=0.0007
  Reduction of seizures over the maintenance period (paragraph after the total seizure tables): 55%
Total seizures; CBD 25 mg/kg/day, treatment period, p-value 0.0013
  Total seizures, estimated ratio CBD/Placebo: 0.709
Total seizures; CBD 50 mg/kg/day (n = 73)
  Total seizures, estimated ratio Treatment period/Baseline period: 0.524
  Total seizures, percentage reduction Treatment period/Baseline period: 47.6%
  Total seizure count, mean number of seizures per 28 days, treatment period: 39.6 per 28 days
Total seizures; [8]
  Total seizure count, mean number of seizures per 28 days, baseline period: 75.7 per 28 days
Total seizures; CBD 50 mg/kg/day, p=0.0005
  Reduction of seizures over the maintenance period (paragraph after the total seizure tables): 55.9%
Total seizures; [10]
  Total seizures, estimated ratio CBD/Placebo: 0.716
  Total seizures, percentage reduction CBD/Placebo: 28.4%
Total seizures; both 25 and 50 mg/kg/day
  Total number of seizures (conclusion): significantly reduce
[1]; 25 mg/kg/day group
  Subject/caregiver's global impression of change (conclusion): significant efficacy
[1]; CBD 25 mg/kg/day
  Subject/caregiver global impression of change: Much improved, number (%): 12 (18.2%)
  Subject/caregiver global impression of change: Much worse, number (%): 2 (3.0%)
  Subject/caregiver global impression of change: No change, number (%): 14 (21.2%)
  Subject/caregiver global impression of change: Slightly improved, number (%): 23 (34.8%)
  Subject/caregiver global impression of change: Slightly worse, number (%): 4 (6.1%)
  Subject/caregiver global impression of change: Very much worse, number (%): 1 (1.5%)
[1]; CBD 25 mg/kg/day, overall p-value 0.0074
  Subject/caregiver global impression of change: Very much improved, number (%): 10 (15.2%)
[1]; CBD 50 mg/kg/day
  Subject/caregiver global impression of change: Much improved, number (%): 12 (18.2%)
  Subject/caregiver global impression of change: Much worse, number (%): 3 (4.5%)
  Subject/caregiver global impression of change: No change, number (%): 14 (21.2%)
  Subject/caregiver global impression of change: Slightly improved, number (%): 21 (31.8%)
  Subject/caregiver global impression of change: Slightly worse, number (%): 6 (9.1%)
  Subject/caregiver global impression of change: Very much worse, number (%): 1 (1.5%)
[1]; CBD 50 mg/kg/day, overall p-value 0.0580
  Subject/caregiver global impression of change: Very much improved, number (%): 9 (13.6%)
[2]; 50 mg/kg/day group compared to 25 mg/kg/day group
  Incidence of diarrhoea, vomiting, transaminase elevations, somnolence, and rash: higher in the 50 mg/kg/day group
[2]; CBD 25 mg/kg/day (n = 75)
  Treatment emergent adverse event, maximal severity Mild, number (%): 37 (49.3%)
  Treatment emergent adverse event, maximal severity Moderate, number (%): 26 (34.7%)
  Treatment emergent adverse event, maximal severity Severe, number (%): 7 (9.3%)
[2]; CBD 25 mg/kg/day
  Patients with alanine aminotransferase (ALT) elevations >3 upper level of normal (ULN): 12%
[2]; CBD 50 mg/kg/day (n = 73)
  Treatment emergent adverse event, maximal severity Mild, number (%): 29 (39.7%)
  Treatment emergent adverse event, maximal severity Moderate, number (%): 35 (47.9%)
  Treatment emergent adverse event, maximal severity Severe, number (%): 9 (12.3%)
[2]; CBD 50 mg/kg/day
  Patients with alanine aminotransferase (ALT) elevations >3 upper level of normal (ULN): 25%
[2]; patients on concomitant valproic acid and on the higher dose of CBD
  Rate of ALT elevations: higher rate of ALT elevations
[2]; patients receiving CBD, 25 or 50 mg/kg/day
  Most common adverse reactions (≥10% and greater than placebo): somnolence; decreased appetite; diarrhoea; vomiting; transaminase elevations; pyrexia; and infections
Seizures [3]
  Seizure freedom: two of the four patients became seizure free
Generalized epilepsy
  Reduction of seizures: marked reduction of seizures in 4 of the patients
Seizures [4]
  Prevention of seizures: able to prevent seizures
Seizures [5]
  Control of seizures: ineffective
